{"source": "patent US20080262053A1", "about": "(priority 2005, published 2008)", "key": {"[1]": {"test_system": "patients with idiopathic RLS", "settings": "continuous treatment over 6 months or more", "protocol": "The severity of the symptoms was determined by means of the difference between the time of randomisation after 6 months and the results after the end of the trial, according to the international RLS scale. The results of 147 patients were evaluated."}, "[2]": {"test_system": "patients suffering from moderate to severe RLS", "text": "The expression moderate to severe RLS is used when patients reach a points score of >15 on the international RLS scale. The scale runs from 0 (no RLS symptoms) to 40 (severest form of RLS). Thus, in moderate to severe RLS, the symptoms usually occur more than twice a week."}, "RLS": {"test_system": "RLS", "settings": "open trials"}}, "data": [{"smiles": "CCCNC1CCc2nc(N)sc2C1.Cl.Cl", "note": "(stereo not drawn) [pramipexole, 2-amino-6-n-propylamino-4,5,6,7-tetrahydrobenzo-thiazole dihydrochloride]", "values": [{"measurement": "effect of continuous treatment on RLS symptoms", "setting": "[1]", "value": "lasting improvement in the RLS symptoms"}, {"measurement": "patient-reported improvement in symptoms (quality of sleep, restlessness of the legs, etc.)", "setting": "[2]; after only one week of treatment", "value": "significant improvements in all areas of symptoms"}, {"measurement": "subjective impression of treated patients", "setting": "[2]; majority of treated patients", "value": "great or very great improvement"}, {"measurement": "improvement in the RLS symptoms", "setting": "[2]; patients with moderate to severe RLS (>15 points on international RLS scale)", "value": "rapid improvement in the RLS symptoms"}, {"measurement": "duration of improvement in the symptoms in RLS patients (lasting effect)", "setting": "[2]; pramipexole administered continuously", "value": "at least 6 months"}, {"measurement": "persistence of lasting clinical effects", "setting": "RLS", "value": "≥ 12", "unit": "months"}]}]}
